Active and inactive are the calls of the source.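 The calls were made as follows: active = at least one rat sex group has a carcinogenic potency value and tumor site recorded; inconclusive = only rat studies were judged inadequate by the national testing program; inactive = no potency or tumor site, with negative rat experiments.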

The first series relates to rat chronic carcinogenicity bioassay, TD50. Put plainly: DSSTox (CPDBAS) Carcinogenic Potency Database Summary Rat Bioassay Results. Particulars: TD50_Rat_Note: TD50 is harmonic mean of more than one positive test; TD50_Rat_mmol was not calculated for this mixture, but Activiity S; TargetSites_Rat_Female: ear Zymbals gland; hits give low values. Summed up:
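The activity score maps log10(1/TD50_Rat_mmol) linearly onto 1–100; actives without a computed TD50, such as mixtures, receive 50. Source data are chronic rat carcinogenicity tests, using the most positive experiment for each sex.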
In the case of `CCn1c2ccccc2c2cc(N)ccc21`, the Potency is 26.4 mg/kg/day.

Staying with this series, now noted: TD50_Rat_Note: TD50 is harmonic mean of more than one positive test; TargetSites_Rat_Female: adrenal gland; hits give low values.
Take `COc1cc(S(C)=O)ccc1-c1nc2ccncc2[nH]1` (configuration not stated): the Potency was 70.5 mg/kg/day.

Still in this series, the particulars now being: TD50_Rat_Note: TD50 is harmonic mean of more than one positive test; TargetSites_Rat_Female: all tumor bearing animals; hits give low values.
As for `CN(N=O)C(=O)c1ccccc1`, the Potency is 3.23 mg/kg/day.

The same series, now with this note: TD50_Rat_Note: TD50 is harmonic mean of more than one positive test; TargetSites_Rat_Female: ear Zymbals gland; liver; uterus; hits give low values.
For the molecule `CCn1c2ccccc2c2cc(N)ccc21`, the Potency is 57.2 mg/kg/day.

Staying with this series, now noted: TD50_Rat_Note: TD50 is harmonic mean of more than one positive test; TargetSites_Rat_Female: esophagus; kidney; mammary gland; stomach; hits give low values.
Regarding `O=[N+]([O-])c1ccc(-c2cnc3ccccn23)o1`, the Potency was 13.6 mg/kg/day.

The series is the same for the next values; noted with them: TD50_Rat_Note: TD50 is harmonic mean of more than one positive test; TargetSites_Rat_Female: esophagus; nasal cavity; hits give low values.
For `O=NN1CCCC1c1ccc[n+]([O-])c1` (configuration not stated), the Potency was 0.876 mg/kg/day.

Staying with this series, now noted: TD50_Rat_Note: TD50 is harmonic mean of more than one positive test; TargetSites_Rat_Female: liver; TargetSites_Rat_BothSexes: hematopoietic system; hits give low values.
With `O=NO`, the Potency was 167 mg/kg/day.

The series is the same for the next values; noted with them: TD50_Rat_Note: TD50 is harmonic mean of more than one positive test; TargetSites_Rat_Female: liver; hits give low values.
In the case of `COc1ccc(CN(CCN(C)C)c2ccccn2)cc1`, the Potency was 280 mg/kg/day.
Take `ClC(Cl)Cl`: the Potency was 262 mg/kg/day.
Consider `CCCCCN(CCCCC)N=O`, for which the Potency was 4.03 mg/kg/day.

Still in this series, the particulars now being: TD50_Rat_Note: TD50 is harmonic mean of more than one positive test; TargetSites_Rat_Female: no positive results; hits give low values.
In the case of `NC(N)=S`, the Potency is 98.5 mg/kg/day.

The series is the same for the next values; noted with them: TD50_Rat_Note: TD50 is harmonic mean of more than one positive test; TargetSites_Rat_Female: urinary bladder; hits give low values.
In the case of `O=NN(c1ccccc1)c1ccccc1`, the Potency was 167 mg/kg/day.

Staying with this series, now noted: TD50_Rat_Note: TD50 is harmonic mean of more than one positive test; greater than ten-fold variation among TD50 values for positive res; TargetSites_Rat_Female: liver; hits give low values.
In the case of `Cc1cc(C)c(N=Nc2c(O)c(S(=O)(=O)O)cc3cc(S(=O)(=O)O)ccc23)cc1C`, the Potency was 521 mg/kg/day.

The series is the same for the next values; noted with them: TD50_Rat_Note: TD50 is harmonic mean of more than one positive test; greater than ten-fold variation among TD50 values for positive res; TargetSites_Rat_Female: thyroid gland; TargetSites_Rat_BothSexes: liver; hits give low values.
In the case of `S=C1NCCN1`, the Potency is 8.13 mg/kg/day.

Staying with this series, now noted: TD50_Rat_Note: TD50 is harmonic mean of more than one positive test; harmonic mean of TD50 includes a value for upper 99% confidence li; TargetSites_Rat_Female: liver; vascular system; hits give low values.
In the case of `O=NN1CCCC1`, the Potency is 0.799 mg/kg/day.

The series is the same for the next values; noted with them: TD50_Rat_Note: TD50 is harmonic mean of more than one positive test; harmonic mean of TD50 includes a value for upper 99% confidence li; TargetSites_Rat_Female: lung; mammary gland; stomach; uterus; hits give low values.
Take `CCCCCCN(N=O)C(N)=O`: the Potency is 0.513 mg/kg/day.

The same series, now with this note: TD50_Rat_Note: TD50 is harmonic mean of more than one positive test; harmonic mean of TD50 includes a value for upper 99% confidence li; TargetSites_Rat_Female: mammary gland; hits give low values.
In the case of `Cc1ccc2cc3c(ccc4ccccc43)c3c2c1CC3`, the Potency was 0.491 mg/kg/day.
In the case of `NC(=O)N/N=C/c1ccc([N+](=O)[O-])o1`, the Potency is 6.98 mg/kg/day.

Staying with this series, now noted: TD50_Rat_Note: TD50 is harmonic mean of more than one positive test; harmonic mean of TD50 includes a value for upper 99% confidence li; TargetSites_Rat_Female: stomach; hits give low values.
Consider `COc1ccc(O)c(C(C)(C)C)c1`, for which the Potency was 405 mg/kg/day.

Staying with this series, now noted: TD50_Rat_Note: TD50 is harmonic mean of more than one positive test; harmonic mean of TD50 includes a value for upper 99% confidence li; TargetSites_Rat_Female: urinary bladder; hits give low values.
Take `CCCCN(CCCCO)N=O`: the Potency was 0.457 mg/kg/day.

The same series, now with this note: TD50_Rat_Note: no positive results.
Take `COc1cc(OC)c2c3c(c(=O)oc2c1)CCC3`: the outcome was “inactive; no positive results”.
As to `O=C1CC(=O)NC(=O)N1`, the outcome is “inactive; no positive results”.
Turning to `[Na+]`, the outcome is “inactive; no positive results”.
For `CC1=C(/C=C/C(C)=C/C=C/C(C)=C/C=C/C=C(C)/C=C/C=C(C)/C=C/C2=C(C)CCCC2(C)C)C(C)(C)CCC1`, the outcome was “inactive; no positive results”.

The series is the same for the next values; noted with them: TD50_Rat_Note: no positive results; TargetSites_Rat_BothSexes: no positive results.
`O=C(OOC(=O)c1ccccc1)c1ccccc1`: the result was inactive.
Consider `O=C1C(c2[nH]c3ccc(S(=O)(=O)O)cc3c2O)=Nc2ccc(S(=O)(=O)O)cc21`, for which the outcome was inactive.
In the case of `CC(=O)C(N=Nc1ccc(Cl)cc1Cl)C(=O)Nc1ccc(-c2ccc(NC(=O)C(N=Nc3ccc(Cl)cc3Cl)C(C)=O)c(C)c2)cc1C` (configuration not stated), the outcome was inactive.

Still in this series, the particulars now being: TD50_Rat_Note: no positive results; TargetSites_Rat_Female: no positive results.
For `O=c1c(O)c(-c2ccc(O)cc2)oc2cc(O)cc(O)c12`, the outcome was “inactive; no positive results”.
Still for that read-out and setting: under `Oc1ccc(Cl)cc1Cl` stands “inactive; no positive results”; under `O=NN(CC(F)(F)F)CC(F)(F)F`, “inactive; no positive results”.
For the molecule `[O]=[Mo](=[O])=[O]`, the outcome was “inactive; no positive results”.
On to `c1ccc(Nc2ccc3ccccc3c2)cc1`, for which the outcome is “inactive; no positive results”.
For the molecule `FC(F)Cl`, the outcome was “inactive; no positive results”.
For the molecule `ClCC(Cl)(Cl)Cl`, the outcome was “inactive; no positive results”.
As to `CS(=O)(=O)OCCCNCCCOS(C)(=O)=O`, the outcome was “inactive; no positive results”.
On the same count and under the same terms, next, `Nc1cc(Cl)cc(C(=O)O)c1Cl`: “inactive; no positive results”.
As for `C=CC=O`, the outcome was “inactive; no positive results”.
With `CC(=O)OC[C@H]1O[C@H](O[C@]2(COC(C)=O)O[C@H](COC(=O)C(C)C)[C@@H](OC(=O)C(C)C)[C@@H]2OC(=O)C(C)C)[C@H](OC(=O)C(C)C)[C@@H](OC(=O)C(C)C)[C@@H]1OC(=O)C(C)C`, the outcome is “inactive; no positive results”.
Consider `CCCC(Cl)CCC(Cl)CCC(Cl)CCC(Cl)CCC(Cl)CCC(Cl)CCC(C)Cl` (configuration not stated), for which the outcome was “inactive; no positive results”.
As for `O=C(O)CN(CCN(CC(=O)O)CC(=O)O)CC(=O)O`, the outcome was “inactive; no positive results”.
As for `CCN(CC)C(=S)S`, the outcome was “inactive; no positive results”.
Consider `CN(N=O)c1ccncc1`, for which the result was inactive.
Same read-out and setting: under `CC(Cl)CCl` (configuration not stated) stands “inactive; no positive results”.
Still for that read-out and setting: next, `O=[N+]([O-])c1cccc2ccccc12`: “inactive; no positive results”; `C[C@@H]1O[C@@]2(CS1)CN1CCC2CC1`: “inactive; no positive results”; `CC(C)[N+](=O)[O-]`: “inactive; no positive results”.
Still for that read-out and setting: next, `OCCN(CCO)CCO`: “inactive; no positive results”; `O=C1C(O)N=C(c2ccccc2F)c2cc(Cl)ccc2N1CCO` (configuration not stated): “inactive; no positive results”; `CCC1C(=O)OCC1Cc1cncn1C` (configuration not stated): “inactive; no positive results”.
Regarding `C=C1C(CCl)(CCl)C2(Cl)C(Cl)C(Cl)C1(Cl)C2(Cl)Cl` (configuration not stated), the outcome is “inactive; no positive results”.
On to `CC1=CC(=C(c2ccc(N)cc2)c2ccc(N)cc2)C=CC1=N`, for which the outcome was “inactive; no positive results”.
Same read-out and setting: next, `Nc1cc([N+](=O)[O-])ccc1C(=O)O`: “inactive; no positive results”; `Cc1cc(N)ccc1N`: “inactive; no positive results”; `COC(=O)C1=C(C)NC(C)=C(C(=O)OCC(C)(C)CN(C)Cc2ccccc2)C1c1cc([N+](=O)[O-])ccc1F` (configuration not stated): “inactive; no positive results”.
For `CBr`, the outcome was “inactive; no positive results”.
Regarding `CCOP(=S)(OCC)Oc1ccc2c(C)c(Cl)c(=O)oc2c1`, the outcome is “inactive; no positive results”.
Still for that read-out and setting: under `O=c1[nH]cc(F)c(=O)[nH]1` stands “inactive; no positive results”; under `CNCc1ccc(CSCCNC(=NCC(O)c2ccc(O)cc2)NS(C)(=O)=O)o1` (configuration not stated), “inactive; no positive results”; under `COc1ccc(N)c(OC)c1`, “inactive; no positive results”.
The same measure, in the same setting: next, `Cc1c(N)cccc1N`: “inactive; no positive results”; `CCOc1nc2cccc(C(=O)OC(C)OC(=O)OC3CCCCC3)c2n1Cc1ccc(-c2ccccc2-c2nn[nH]n2)cc1` (configuration not stated): “inactive; no positive results”; `O=CNNc1nc(-c2ccco2)cs1`: “inactive”.
Same read-out and setting: under `CC(C)NCC(O)COc1cccc2ccccc12` (configuration not stated) stands “inactive; no positive results”.
With `CCCCCCCCCCCCC(=O)COC1=C(O)C(=O)O[C@@H]1[C@@H](O)CO`, the result was inactive.
For the molecule `C=CC(=O)O`, the outcome was “inactive; no positive results”.
`NC1=NC(=O)C(c2ccccc2)O1` (configuration not stated): the outcome was inactive.
Turning to `NC(=O)CCCCC(N)=O`, the outcome was “inactive; no positive results”.
`CCC(=O)C(CC(C)N(C)C)(c1ccccc1)c1ccccc1` (configuration not stated): the outcome is “inactive; no positive results”.
Turning to `Cc1cccc(C)c1NC(=O)CN1CCCC1=O`, the outcome is “inactive; no positive results”.
As to `CCOC(=O)[C@]1(c2ccccc2)CCC=C[C@H]1N(C)C`, the outcome is “inactive; no positive results”.

The series is the same for the next values; noted with them: TargetSites_Rat_BothSexes: all tumor bearing animals; hits give low values.
`O=NN1CC=CCO1`: the Potency was 90.6 mg/kg/day.

The series is the same for the next values; noted with them: TargetSites_Rat_Female: ear Zymbals gland; liver; mammary gland; hits give low values.
On to `CC(=O)Nc1ccc2c(c1)C(=O)c1ccccc1-2`, for which the Potency was 6.17 mg/kg/day.

The same series, now with this note: TargetSites_Rat_Female: hematopoietic system; mammary gland; hits give low values.
Take `CCCCNC(=O)N(CCCC)N=O`: the Potency was 4.28 mg/kg/day.

Still in this series, the particulars now being: TargetSites_Rat_Female: mammary gland; hits give low values.
`Cc1csc(NNC=O)n1`: the Potency is 14.4 mg/kg/day.
On to `C[N+](=O)[O-]`, for which the Potency is 40.4 mg/kg/day.

Staying with this series, now noted: TargetSites_Rat_Female: no positive results; hits give low values.
Regarding `CN(C)C(=O)Nc1ccc(Cl)cc1`, the Potency is 131 mg/kg/day.
As to `CC1=CC(=O)CC(C)(C)C1`, the Potency was 1210 mg/kg/day.
As to `COc1c2occc2cc2ccc(=O)oc12`, the Potency is 32.4 mg/kg/day.
As to `C=CCN=C=S`, the Potency was 96 mg/kg/day.

The same series, now with this note: TargetSites_Rat_Female: thyroid gland; hits give low values.
As to `CNC(=S)N(C)C`, the Potency is 25.8 mg/kg/day.

The same series, now with this note: hits give low values.
Turning to `CCN=[N+]([O-])CC`, the Potency is 0.022 mg/kg/day.
For the molecule `CC1CN1P(=O)(N1CC1C)N1CC1C` (configuration not stated), the Potency is 4.46 mg/kg/day.

Source of the values: PubChem BioAssay AID1208 (EPA DSSTox, 2008).
